Measurements published in patent publication EP1724268A1, “COMPOUND HAVING TGF-BETA INHIBITORY ACTIVITY AND PHARMACEUTICAL COMPOSITION CONTAINING SAME” (KIRIN BEER KABUSHIKI KAISHA, priority 2004, dated 2005).
Read-outs that look alike come from different tables or passages of the source.

Tested on: TGFβ signal
Test: TGFβ signal inhibitory activity, (SBE)4-Luc reporter in A549 cells (Test Examples 1A and 1B)
Type: cell-based, human
Settings: Homo sapiens, A549, read-out: TGFβ inhibition rate, %
How it was run: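 Stable A549 line carrying (SBE)4-Luc Smad3-binding reporter treated with compound plus TGFβ-1 (2 ng/ml) for 4 hr; luciferase read by chemiluminescence. Percent inhibition relative to TGFβ-only and untreated cells, tested at 3 µM and 10 µM, some also at 1 µM.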

[1] = 3 µM, compounds of Reference Examples (Test Example 1B)
[2] = 10 µM, compounds of Reference Examples (Test Example 1B)
[3] = test compound 3 µM, Reference Examples, Table 1B
[4] = test compound 10 µM, Reference Examples, Table 1B
[5] = test compound 3 µM, TGFβ-1 2 ng/ml, 4 hr, Table 1A
[6] = test compound 10 µM, TGFβ-1 2 ng/ml, 4 hr, Table 1A

Row | SMILES | inhibition at 3 µM [1] | inhibition at 10 µM [2] | other results
1 | COc1cc2c(Oc3cc4ccccc4nc3C)ccnc2cc1OCc1ccccc1 [Compound r351, 7-Benzyloxy-6-methoxy-4-(2-methyl-quinolin-3-yloxy)-quinoline] | 42% | 90% | –
2 | COc1cc2nccc(Oc3cc(C)c(C)nc3-c3ccccn3)c2cc1OC [Compound r269] | – | – | inhibition at 1 µM (1 µM, compounds of Reference Examples (Test Example 1B)): 97%
3 | COc1cc2nccc(Oc3cc4ccccc4nc3-c3ccc(F)cc3)c2cc1OC [r285] | 65% | 100% | –
4 | COc1cc2nccc(Oc3cc4ccncc4cc3-c3ccccn3)c2cc1OC [Compound r303, 6,7-Dimethoxy-4-(7-pyridin-2-yl-isoquinolin-6-yloxy)-quinoline] | 96% | – | –
5 | CCCOc1ccc(Oc2ccnc3cc(OC)c(OC)cc23)c(C(C)=O)c1 [Compound r179] | 18% | 68% | –
6 | COc1cc2c(Oc3cc(C)c(C)nc3-c3nc(C)c(C)s3)ccnc2cc1OCCCO [Compound r462] | 99% | – | –
7 | CCCOC(=O)c1cc2ccccc2cc1Oc1ccnc2cc(OCCCl)c(OC)cc12 [Compound r322] | 50% | 88% | –
8 | COc1cc2c(Oc3cc(C)c(C)cc3C(C)=O)ccnc2cc1O [Compound r314] | 50% | 89% | –
9 | COc1cc2c(Oc3cc(C)c(C)cc3C(C)=O)ccnc2cc1OCc1ccccc1 [Compound r313] | 56% | 94% | –
10 | COc1cc2nccc(Oc3ccc4ncccc4c3)c2cc1OC [r24] | – | – | inhibition at 3 µM [3]: 66%; inhibition at 10 µM [4]: 91%
11 | COc1cc2nccc(Oc3ccc(C)cc3Cl)c2cc1OC [Compound r3] | – | – | inhibition at 3 µM [3]: 0%; inhibition at 10 µM [4]: 75%
12 | CCCOC(=O)c1cc2ccccc2cc1Oc1ccnc2cc(OCCCN3CCOCC3)c(OC)cc12 [Compound r326] | 83% | 100% | –
13 | COc1cc2c(Oc3cc4ccccc4nc3C)ccnc2cc1OCC(CO)CO [Compound r387] | 99% | 100% | –
14 | CCCc1ccc(Oc2ccnc3cc(OC)c(OC)cc23)c(C(C)=O)c1 [r173] | 83% | 100% | –
15 | COc1cc2c(Oc3cc4cccnc4nc3C)ccnc2cc1OCCN1CCCC(O)C1 (stereo not drawn) [Compound r399] | 99% | 100% | –
16 | COc1cc2ncnc(Oc3cc(C)c(C)nc3-c3ncccn3)c2cc1OC [Compound 51, 4-(5,6-Dimethyl-2-pyrimidin-2-yl-pyridin-3-yloxy)-6,7-dimethoxy-quinazoline] | – | – | inhibition at 3 µM [5]: 93%; inhibition at 10 µM [6]: 100%
17 | COc1cc2nccc(Oc3ccc(C)nc3-c3ccccc3O)c2cc1OC [Compound r226] | 60% | 96% | –
18 | COc1cc2nccc(Oc3cc4ccccc4nc3C(C)=O)c2cc1OC [Compound r278, 1-[3-(6,7-Dimethoxy-quinolin-4-yloxy)-quinolin-2-yl]-ethanone] | 90% | 99% | –
19 | COc1cc2nccc(Oc3ccc(C)nc3-c3cn[nH]c3)c2cc1OC [r434] | 100% | 100% | –
20 | COc1cc(Oc2ccnc3cc(OC)c(OC)cc23)c(C(C)=O)cc1OC [Compound r39] | – | – | inhibition at 3 µM [3]: 0%; inhibition at 10 µM [4]: 91%
21 | COc1cc2nccc(Oc3cc(C)c(C)nc3-c3ccccn3)c2cc1-c1cccnc1 [Compound 155, 3-(7-Methoxy-6-pyridin-3-yl-quinotin-4-yloxy)-5,6-dimethyl-[2,2']bipyridine] | – | – | inhibition at 3 µM [5]: 99%; inhibition at 10 µM [6]: 100%

Row | SMILES | inhibition at 3 µM [1] | inhibition at 10 µM [2] | other results
22 | Cc1cc2nccc(Oc3cc(C)c(C)nc3-c3ccccn3)c2cc1C [Compound 170, 3-(6,7-Dimethyl-quinolin-4-yloxy)-5,6-dimethyl-[2,2']bipyridine] | – | – | inhibition at 3 µM [5]: 98%; inhibition at 10 µM [6]: 100%
23 | COc1cc2nccc(Oc3cc(C)c(C)cc3-c3ccccn3)c2cc1OC [Compound r169] | 99% | 100% | –
24 | CCC(=O)c1ccc(OC)cc1Oc1ccnc2cc(OC)c(OC)cc12 [r44] | – | – | inhibition at 3 µM [3]: 97%; inhibition at 10 µM [4]: 100%
25 | COc1cc2c(Oc3ccc(C)cc3C(=O)c3ccccc3)ccnc2cc1OCCCCN1CCOCC1 [Compound r149] | – | – | inhibition at 3 µM [3]: 96%; inhibition at 10 µM [4]: 100%
26 | COc1cc2nccc(Oc3cc4cccnc4nc3C)c2cc1F [Compound 160, 3-(6-Fluoro-7-methoxy-quinolin-4-yloxy)-2-methyl-[1,8]naphthyridine] | – | – | inhibition at 3 µM [5]: 56%; inhibition at 10 µM [6]: 87%
27 | COc1cc2nccc(Oc3cnc4ncccc4c3)c2cc1OC [Compound r427] | 44% | 80% | –
28 | COc1cc2nccc(Oc3ccc(C)cc3C(=O)N3CCCCC3)c2cc1OC [r109] | – | – | inhibition at 3 µM [3]: 5%; inhibition at 10 µM [4]: 66%
29 | Cc1cc(Oc2ccnc3cc(-c4ccccc4N)ccc23)c(-c2ccccn2)nc1C [Compound 108, 2-[4-(5,6-Dimethyl-[2,2']bipyridinyl-3-yloxy)-quinolin-7-yl]-phenylamine] | – | – | inhibition at 3 µM [5]: 96%; inhibition at 10 µM [6]: 100%
30 | COc1cc2c(Oc3cc(C)c(C)nc3-c3ccc(C)cn3)ccnc2cc1OCC1CO1 (stereo not drawn) [Compound r457] | 97% | 100% | –
31 | COc1cc2nccc(Oc3c(OC)cccc3C(C)=O)c2cc1OC [Compound r30] | – | – | inhibition at 3 µM [3]: 0%; inhibition at 10 µM [4]: 61%
32 | COc1cc2nccc(Oc3ccc(C)nc3-c3cccc(O)c3)c2cc1OC [Compound r237] | 100% | 100% | –
33 | COc1cc2nccc(Oc3ccc(C)nc3-c3cccc(C(N)=O)c3)c2cc1OC [Compound r233] | 98% | 100% | –
34 | COc1cc2nccc(Oc3cc4ccccc4cc3O)c2cc1OC [r425] | 72% | 100% | –
35 | Cc1ccc(-c2ccc3c(Oc4cc(C)c(C)nc4-c4ccccn4)ccnc3c2)cc1 [Compound 20, 5,6-Dimethyl-3-(7-p-tolyl-quinolin-4-yloxy)-[2,2']bipyridine] | – | – | inhibition at 3 µM [5]: 90%; inhibition at 10 µM [6]: 100%
36 | COc1cc2nccc(Oc3ccc(C)nc3-c3cncnc3)c2cc1OC [Compound r265] | 45% | 85% | –
37 | COc1cc2nccc(Oc3ccc(C)cc3C(=O)c3ccc(OCCN4CCOCC4)cc3)c2cc1OC [Compound r191] | 39% | 93% | –
38 | COc1ccc(Oc2ccnc3cc(OC)c(OC)cc23)cn1 [Compound r207, 6,7-Dimethoxy-4-(6-methoxy-pyridin-3-yloxy)-quinoline] | 77% | 99% | –
39 | COc1cc2c(Oc3cc(C)c(C)nc3-c3ccccn3)ccnc2cc1F [Compound 104, 3-(7-Fluoro-6-methoxy-quinolin-4-yloxy)-5,6-dimethyl-[2,2']bipyridine] | – | – | inhibition at 3 µM [5]: 99%; inhibition at 10 µM [6]: 100%
40 | COc1cc2c(Oc3cc(C)c(C)nc3-c3nc(C)c(C)s3)ccnc2cc1OCCO [Compound r461] | 82% | – | –
41 | Cc1cc(Oc2ncnc3scc(C)c23)c(-c2ccccn2)nc1C [Compound 34, 5,6-Dimethyl-3-(5-methyl-thieno[2,3-d]pyrimidin-4-yloxy)-[2,2'] bipyridine] | – | – | inhibition at 3 µM [5]: 94%; inhibition at 10 µM [6]: 100%
